Laboratory results taken from article PMC6934184, “Selective DNA-PKcs inhibition extends the therapeutic index of localized radiotherapy and chemotherapy” (The Journal of Clinical Investigation, 2019).

Target: T1, FRAP1 (mTOR) (Homo sapiens, UniProt P42345)
T1 construct: purchased Thermo Fisher Scientific (Life Technologies) SelectScreen
Experiment: SelectScreen Z'LYTE
Assay type: biochemical
Outline: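 Percent values come from Thermo SelectScreen profiling of NU5455, combining activity and binding assays. CSF1R was run in Z'LYTE format at Km app ATP, and CAMK1 in Adapta format with ATP listed at 10.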

In the case of CN(C(=O)CN1CCOCC1)c1ccc2sc3c(-c4cccc5c(=O)cc(N6CC7CCC(C6)O7)oc45)cccc3c2c1 [NU5455], the inhibition at 1 µM is reported as 5.7%.
